In paper PMC6952399, “Structures of lipoprotein signal peptidase II from Staphylococcus aureus complexed with antibiotics globomycin and myxovirescin” (Nature Communications, 2020) one finds IC50 and remaining activity data, which are given here for two compounds.

In the assay the target is T1, LspPae (lipoprotein signal peptidase II from Pseudomonas aeruginosa) (Pseudomonas aeruginosa, UniProt Q9HVM5).
T1 construct: made in house
T1 sequence (Q9HVM5 1-169): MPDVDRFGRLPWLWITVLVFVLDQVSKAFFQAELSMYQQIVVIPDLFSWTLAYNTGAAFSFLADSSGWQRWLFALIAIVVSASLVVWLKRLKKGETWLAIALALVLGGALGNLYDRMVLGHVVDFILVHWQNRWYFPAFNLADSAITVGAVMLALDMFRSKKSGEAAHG
Put plainly: Coupled gel-shift peptidase assay with proICP substrate, LspPae WT. The assay is classed as biochemical. The source says:
The peptidase activity of LspMrs and P. aeruginosa LspA (LspPae) was quantified in a coupled gel-shift assay developed previously for LspPae[5]. The P. aeruginosa lipoprotein pre-proICP and the first two enzymes in the bacterial lipoprotein processing pathway Lgt and LspA were expressed and purified, as described. For FRET assays LspMrs was expressed and purified as described above and LspPae was expressed and purified as described in a published protocol.
Gel-shift activity assay. For time course assays, reactions were set up containing 12 µM pre-proICP, 250 µM DOPG (Avanti Polar Lipids, Inc.) and 1.2 µM Lgt in Buffer E (50 mM Tris/HCl pH 7.5, 150 mM NaCl, 1 mM DTT, 0.02%(w/v) LMNG). The assay mixtures were incubated at 37 °C and 200 rpm for 60 min to allow Lgt catalysed conversion of pre-proICP to the LspA substrate proICP. The LspA reaction was initiated by adding 0.5 µM LspA directly to the assay mixture. At timed intervals, 20 µL samples were removed and the reaction was stopped by adding 10 µL of 4x SDS loading buffer (62.5 mM Tris/HCl pH 6.8, 2.5%(w/v) SDS, 0.002%(w/v) bromophenol blue, 0.5 M β-mercaptoethanol, 10%(v/v) glycerol). To compare the activity of wild-type and mutant LspMrs, assays were allowed to proceed for 30 min before being stopped with SDS loading buffer. […] The reactions were initiated by adding LspA and allowed to proceed for 30 min. After the reaction was stopped with SDS buffer, 10 μL aliquots were loaded on precast Mini-PROTEAN® TGX^TM gels (Bio-Rad) and run with Tris/glycine buffer (25 mM Tris/HCl pH 8.0, 250 mM glycine, 0.1%(w/v) SDS). The gels were stained using InstantBlue™ (Expedeon) Coomassie based stain and were imaged using a Bio-Rad Gel-Doc imager (Supplementary Fig. 4). Band intensities of ICP were quantified using Image Lab. Dose-response plots to determine IC50 values were generated using Prism® 5 software from GraphPad.

The term IC50 denotes the concentration needed to halve the response being measured. `CCCCCC[C@H]1OC(=O)CNC(=O)[C@H]([C@H](C)O)NC(=O)[C@H](CO)NC(=O)[C@H]([C@H](C)CC)NC(=O)[C@H](CC(C)C)N(C)C(=O)[C@@H]1C` [globomycin]: the IC50 turned out to be 0.64 ± 0.16 µM. For the same compound, the remaining activity at 1000 µM (Log[Globomycin](M) -3, read-out: Normalized activity) came to 94.2%. Besides, the remaining activity at 100 µM (Log[Globomycin](M) -4, read-out: Normalized activity) is 94%.
Turning to `CCCC1OC(=O)C(C)CC(C)CCCCC(=O)CCCC(CC)C=CC=C(COC)CCC(O)C(O)CC(O)CNC1=O` (centres unmarked) [myxovirescin, myxovirescin A1], the IC50 stood at 1.09 ± 0.34 µM. The remaining activity at 50 µM (read-out: Normalized activity, Log[Myxovirescin](M) -4.30103) came out at 95.7%.
